# Data reported in patent publication US10092570B2 (Incyte Corporation, priority 2011, dated 2018).
# Where a name gives a salt, the structure may show the parent alone.
# Legend:
# [1] = tested on: Pfeiffer cell line (diffuse large B cell lymphoma); assay: Example B2: Pfeiffer cell proliferation assay; format: cell-based; settings: Pfeiffer cells, [3H]-thymidine incorporation
# Procedure: Pfeiffer cell line (diffuse large B cell lymphoma) are purchased from ATCC (Manassas, Va.) and maintained in the culture medium recommended (RPMI and 10% FBS). To measure the anti-proliferation activity of the compounds, the Pfeiffer cells are plated with the culture medium (2×10^3 cells/well/per 200 μl) into 96-well ultra-low binding plates (Corning, Corning, N.Y.), in the presence or absence of a concentration range of test compounds. After 3-4 days, [^3H]-thymidine (1 μCi/well) (PerkinElmer, Boston, Mass.) in PBS is then added to the cell culture for an additional 12 hours before the incorporated radioactivity is separated by filtration with water through GF/B filters (Packard Bioscience, Meridenj, Conn.) and measured by liquid scintillation counting with a TopCount (Packard Bioscience).
# PI3Kδ (p110δ/p85α) = PI3Kδ (p110δ/p85α) (Homo sapiens (Human), UniProt O00329); assay: Example A3: PI3Kδ scintillation proximity assay; format: biochemical; settings: scintillation proximity assay, 20 μM ATP, 4 nM PI3Kδ; read-out: PI3Kδ SPA IC50
# How it was run: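 p110δ/p85α (4 nM) phosphorylated 20 μM PIP2 with 20 μM ATP plus [γ-33P]ATP in MOPS pH 6.7, MgCl2, DTT, CHAPS, 0.5% DMSO, at RT. Stopped with EDTA/excess ATP, product captured on WGA SPA beads overnight and counted; IC50 from percent control activity versus log inhibitor.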
# PI3Kδ (p110δ/p85α), sequence (O00329 whole entry): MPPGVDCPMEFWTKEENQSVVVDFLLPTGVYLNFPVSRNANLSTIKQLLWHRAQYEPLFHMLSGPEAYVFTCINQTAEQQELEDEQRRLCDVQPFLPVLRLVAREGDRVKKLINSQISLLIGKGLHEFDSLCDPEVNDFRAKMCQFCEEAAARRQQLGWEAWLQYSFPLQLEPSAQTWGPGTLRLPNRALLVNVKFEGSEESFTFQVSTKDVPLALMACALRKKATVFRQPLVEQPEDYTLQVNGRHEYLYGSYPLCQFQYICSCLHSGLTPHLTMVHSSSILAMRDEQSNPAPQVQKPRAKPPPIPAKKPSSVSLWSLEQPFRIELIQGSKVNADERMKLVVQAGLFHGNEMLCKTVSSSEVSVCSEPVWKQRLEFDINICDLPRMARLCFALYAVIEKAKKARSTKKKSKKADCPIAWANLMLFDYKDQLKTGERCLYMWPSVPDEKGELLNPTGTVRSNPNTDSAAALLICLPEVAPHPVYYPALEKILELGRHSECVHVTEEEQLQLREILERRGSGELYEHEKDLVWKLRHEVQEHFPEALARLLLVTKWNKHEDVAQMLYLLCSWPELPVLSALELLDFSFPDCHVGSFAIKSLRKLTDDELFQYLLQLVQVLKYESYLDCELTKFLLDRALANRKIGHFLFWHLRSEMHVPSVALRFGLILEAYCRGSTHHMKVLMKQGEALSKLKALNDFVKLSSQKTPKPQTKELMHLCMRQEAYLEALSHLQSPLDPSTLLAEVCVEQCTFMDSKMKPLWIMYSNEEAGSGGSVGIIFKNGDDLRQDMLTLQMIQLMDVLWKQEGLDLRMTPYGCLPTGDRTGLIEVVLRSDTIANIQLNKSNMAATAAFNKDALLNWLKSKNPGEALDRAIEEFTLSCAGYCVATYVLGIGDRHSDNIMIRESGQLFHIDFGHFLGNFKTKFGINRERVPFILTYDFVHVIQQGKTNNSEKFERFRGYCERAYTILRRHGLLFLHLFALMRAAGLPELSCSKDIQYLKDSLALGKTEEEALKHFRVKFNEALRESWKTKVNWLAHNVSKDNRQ
# PI3Kδ (p110δ/p85α), sequence (P27986 whole entry partner): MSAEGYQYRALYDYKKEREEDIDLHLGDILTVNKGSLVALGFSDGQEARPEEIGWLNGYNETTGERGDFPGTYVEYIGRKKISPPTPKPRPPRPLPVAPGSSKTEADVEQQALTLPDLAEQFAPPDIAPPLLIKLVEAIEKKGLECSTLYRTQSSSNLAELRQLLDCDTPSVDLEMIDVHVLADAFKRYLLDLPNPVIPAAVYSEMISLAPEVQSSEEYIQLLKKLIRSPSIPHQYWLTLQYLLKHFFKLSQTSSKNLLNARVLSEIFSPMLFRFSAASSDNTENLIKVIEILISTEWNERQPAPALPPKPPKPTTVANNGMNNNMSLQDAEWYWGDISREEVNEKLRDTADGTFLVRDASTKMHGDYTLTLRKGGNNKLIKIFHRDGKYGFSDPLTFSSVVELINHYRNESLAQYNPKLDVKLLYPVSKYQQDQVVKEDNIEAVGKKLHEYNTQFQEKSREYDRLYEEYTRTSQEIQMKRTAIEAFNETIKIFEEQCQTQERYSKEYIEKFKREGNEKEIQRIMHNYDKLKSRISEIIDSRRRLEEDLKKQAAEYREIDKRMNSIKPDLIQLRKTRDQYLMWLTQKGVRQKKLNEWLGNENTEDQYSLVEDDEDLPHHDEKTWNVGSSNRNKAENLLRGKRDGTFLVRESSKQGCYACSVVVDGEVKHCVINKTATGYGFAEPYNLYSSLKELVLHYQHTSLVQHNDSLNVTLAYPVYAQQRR
SMILES,"IC50 ([1]; Homo sapiens, Pfeiffer)",other results
"COc1c(C(C)n2nc(C)c3c(N)ncnc32)cc(Cl)c(F)c1C1CN(C(C)C)C1 (stereo not drawn) [67 (1st peak), 1-{1-[5-Chloro-4-fluoro-3-(1-isopropylazetidin-3-yl)-2-methoxyphenyl]ethyl}-3-methyl-1H-pyrazolo[3,4-d]pyrimidin-4-amine]",< 0.01 µM,–
"COc1c(C(C)n2nc(C)c3c(N)ncnc32)cc(Cl)c(F)c1C1CN(C[C@H](C)O)C1 (single isomer, unassigned) [68 (1st peak)]",< 0.01 µM,–
"COc1c(C(C)n2nc(C)c3c(N)ncnc32)cc(Cl)c(C)c1C1CN(C(=O)[C@@H](C)O)C1 (single isomer, unassigned) [Example 121, trifluoroacetate]",0.01 to 0.05 µM,–
"CCOc1c(C(C)n2nc(C)c3c(N)ncnc32)cc(Cl)c(F)c1C1CNC(=O)C1 (single isomer, unassigned) [Example 347, 4-{3-[1-(4-amino-3-methyl-1H-pyrazolo[3,4-d]pyrimidin-1-yl)ethyl]-5-chloro-2-ethoxy-6-fluorophenyl}pyrrolidin-2-one]",–,IC50 [1]: < 0.01 µM
"CCOc1c(C(C)n2nc(C(F)F)c3c(N)ncnc32)cc(Cl)c(F)c1C1CN(CCO)C1 (racemic) [Example 152, 2-[3-(3-{1-[4-Amino-3-(difluoromethyl)-1H-pyrazolo[3,4-d]pyrimidin-1-yl]ethyl}-5-chloro-2-ethoxy-6-fluorophenyl)azetidin-1-yl]ethanol]",< 0.01 µM,–
"COc1c(C(C)n2nc(C)c3c(N)ncnc32)cc(Cl)c(C)c1-c1ccnc(C(=O)N(C)C)c1 (stereo not drawn) [Example 200, 4-(3-(1-(4-Amino-3-methyl-1H-pyrazolo[3,4-d]pyrimidin-1-yl)ethyl)-5-chloro-2-methoxy-6-methylphenyl)-N,N-dimethylpicolinamide bis(2,2,2-trifluoroacetate)]",< 0.01 µM,–
"COc1c(C(C)n2nc(C)c3c(N)ncnc32)cc(Cl)c(C)c1C1CN(CC(N)=O)C1 (single isomer, unassigned) [Example 111, 2-(3-{3-[1-(4-Amino-3-methyl-1H-pyrazolo[3,4-d]pyrimidin-1-yl)ethyl]-5-chloro-2-methoxy-6-methylphenyl}azetidin-1-yl)acetamide]",< 0.01 µM,–
"COc1c(C(C)n2nc(C(F)F)c3c(N)ncnc32)cc(Cl)c(C)c1-c1ccc(C(=O)N(C)C)nc1 (stereo not drawn) [Example 191, 5-(3-{1-[4-Amino-3-(difluoromethyl)-1H-pyrazolo[3,4-d]pyrimidin-1-yl]ethyl}-5-chloro-2-methoxy-6-methylphenyl)-N,N-dimethylpyridine-2-carboxamide]",< 0.01 µM,–
"CCOc1c(C(C)n2nc(C)c3c(N)ncnc32)cc(Cl)c(F)c1C1CN(CC(N)=O)C1 (racemic) [Example 148, 2-(3-{3-[1-(4-Amino-3-methyl-1H-pyrazolo[3,4-d]pyrimidin-1-yl)ethyl]-5-chloro-2-ethoxy-6-fluorophenyl}azetidin-1-yl)acetamide]",< 0.01 µM,–
"CCOc1c(C(C)n2nc(C)c3c(N)ncnc32)cc(Cl)c(F)c1C1CN(CCO)C1 (racemic) [Example 144, 2-(3-{3-[1-(4-Amino-3-methyl-1H-pyrazolo[3,4-d]pyrimidin-1-yl)ethyl]-5-chloro-2-ethoxy-6-fluorophenyl}azetidin-1-yl)ethanol]",< 0.01 µM,–
"COc1c(C(C)n2nc(C(F)F)c3c(N)ncnc32)cc(C#N)c(C)c1C1CN(C(C)=O)C1 (racemic) [Example 138, 3-(1-Acetylazetidin-3-yl)-5-{1-[4-amino-3-(difluoromethyl)-1H-pyrazolo[3,4-d]pyrimidin-1-yl]ethyl}-4-methoxy-2-methylbenzonitrile]",–,IC50 (PI3Kδ (p110δ/p85α)): < 0.01 µM
"COc1c(C(C)n2nc(C)c3c(N)ncnc32)cc(Cl)c(C#N)c1C1CN(C(N)=O)C1 (single isomer, unassigned) [Example 293, 3-{3-[1-(4-Amino-3-methyl-1H-pyrazolo[3,4-d]pyrimidin-1-yl)ethyl]-5-chloro-6-cyano-2-methoxyphenyl}azetidine-1-carboxamide]",–,IC50 (PI3Kδ (p110δ/p85α)): < 0.01 µM
"CCOc1c(C(C)n2ccc(=O)c3c(N)ncnc32)cc(Cl)c(C#N)c1-c1ccc(C(=O)N(C)C)nc1 (racemic) [Example 45, 5-{3-[1-(4-amino-5-oxopyrido[2,3-d]pyrimidin-8(5H)-yl)ethyl]-5-chloro-6-cyano-2-ethoxyphenyl}-N,N-dimethylpyridine-2-carboxamide]",–,IC50 (PI3Kδ (p110δ/p85α)): < 0.01 µM
"CCOc1c(C(C)n2nc(C)c3c(N)ncnc32)cc(Cl)c(C#N)c1-c1cncc(S(C)(=O)=O)c1 (racemic) [Example 43, 4-[1-(4-amino-3-methyl-1H-pyrazolo[3,4-d]pyrimidin-1-yl)ethyl]-6-chloro-3-ethoxy-2-[5-(methylsulfonyl)pyridin-3-yl]benzonitrile]",–,IC50 (PI3Kδ (p110δ/p85α)): < 0.01 µM
"CCOc1c(C(C)n2nc(C)c3c(N)ncnc32)cc(Cl)c(C#N)c1C1CN(C(C)(C)C(=O)OC(C)(C)C)C1 (stereo not drawn) [Example 236, tert-Butyl 2-(3-{3-[1-(4-amino-3-methyl-1H-pyrazolo[3,4-d]pyrimidin-1-yl)ethyl]-5-chloro-6-cyano-2-ethoxyphenyl}azetidin-1-yl)-2-methylpropanoate]",–,IC50 (PI3Kδ (p110δ/p85α)): < 0.01 µM
"CCOc1c(C(C)n2nc(C)c3c(N)ncnc32)cc(Cl)c(C#N)c1-c1ccc(C(=O)N(C)C)nc1 (racemic) [Example 44, 5-(3-(1-(4-amino-3-methyl-1H-pyrazolo[3,4-d]pyrimidin-1-yl)ethyl)-5-chloro-6-cyano-2-ethoxyphenyl)-N,N-dimethylpicolinamide]",–,IC50 (PI3Kδ (p110δ/p85α)): < 0.01 µM
"CCOc1c(C(C)n2nc(C)c3c(N)ncnc32)cc(Cl)c(C)c1-c1ccc(C(=O)N(C)C)nc1 (stereo not drawn) [Example 14, 5-{3-[1-(4-Amino-3-methyl-1H-pyrazolo[3,4-d]pyrimidin-1-yl)ethyl]-5-chloro-2-ethoxy-6-methylphenyl}-N,N-dimethylpyridine-2-carboxamide bis(trifluoroacetate)]",–,IC50 (PI3Kδ (p110δ/p85α)): < 0.01 µM
"COc1c(C(C)n2nc(C)c3c(N)ncnc32)cc(Cl)c(C)c1C1CN(C2CCOC2)C1 (stereo not drawn) [Example 107, 1-(1-{5-Chloro-2-methoxy-4-methyl-3-[1-(tetrahydrofuran-3-yl)azetidin-3-yl]phenyl}ethyl)-3-methyl-1H-pyrazolo[3,4-d]pyrimidin-4-amine]",–,IC50 (PI3Kδ (p110δ/p85α)): < 0.01 µM

# Further lines, with some results ahead:
"IC50 ([1]; Homo sapiens, Pfeiffer)",SMILES,other results
< 0.01 µM,"COc1c(C(C)n2nc(C)c3c(N)ncnc32)cc(Cl)c(C#N)c1-c1ccc(C(=O)N(C)C)nc1 (stereo not drawn) [Example 313, 5-{3-[1-(4-amino-3-methyl-1H-pyrazolo[3,4-d]pyrimidin-1-yl)ethyl]-5-chloro-6-cyano-2-methoxyphenyl}-N,N-dimethylpyridine-2-carboxamide]",–
< 0.01 µM,"CCOc1c(C(C)n2nc(C)c3c(N)ncnc32)cc(Cl)c(C#N)c1C1CN(C(C)C)C1 (single isomer, unassigned) [Example 215, 4-[1-(4-Amino-3-methyl-1H-pyrazolo[3,4-d]pyrimidin-1-yl)ethyl]-6-chloro-3-ethoxy-2-(1-isopropylazetidin-3-yl)benzonitrile]",–
< 0.01 µM,"CCOc1c(C(C)n2nc(C)c3c(N)ncnc32)cc(Cl)c(C#N)c1C1CN(CC)C1 (single isomer, unassigned) [Example 214, 4-[1-(4-Amino-3-methyl-1H-pyrazolo[3,4-d]pyrimidin-1-yl)ethyl]-6-chloro-3-ethoxy-2-(1-ethylazetidin-3-yl)benzonitrile]",–
< 0.01 µM,"CCOc1c(C(C)n2nc(C)c3c(N)ncnc32)cc(Cl)c(F)c1C1COC(=O)N1 (single isomer, unassigned) [Example 354, 4-{3-[1-(4-amino-3-methyl-1H-pyrazolo[3,4-d]pyrimidin-1-yl)ethyl]-5-chloro-2-ethoxy-6-fluorophenyl}-1,3-oxazolidin-2-one]",–
< 0.01 µM,"CCOc1c(C(C)n2nc(C)c3c(N)ncnc32)cc(Cl)c(C#N)c1C1CNC(=O)C1 (single isomer, unassigned) [Example 349, 4-[1-(4-amino-3-methyl-1H-pyrazolo[3,4-d]pyrimidin-1-yl)ethyl]-6-chloro-3-ethoxy-2-(5-oxopyrrolidin-3-yl)benzonitrile]",–
< 0.01 µM,"CCOc1c(C(C)n2nc(C)c3c(N)ncnc32)cc(Cl)c(C#N)c1C1CN(S(C)(=O)=O)C1 (single isomer, unassigned) [Example 248, 4-[1-(4-Amino-3-methyl-1H-pyrazolo[3,4-d]pyrimidin-1-yl)ethyl]-6-chloro-3-ethoxy-2-[1-(methylsulfonyl)azetidin-3-yl]benzonitrile]",–
< 0.01 µM,"CCOc1c(C(C)n2nc(C)c3c(N)ncnc32)cc(Cl)c(C)c1-c1cncc(C(=O)N(C)C)c1 (single isomer, unassigned) [Example 196, 5-(3-(1-(4-amino-3-methyl-1H-pyrazolo[3,4-d]pyrimidin-1-yl)ethyl)-5-chloro-2-ethoxy-6-methylphenyl)-N,N-dimethylnicotinamide]",–
< 0.01 µM,"CCOc1c(C(C)n2nc(C)c3c(N)ncnc32)cc(Cl)c(C#N)c1C1CN(CC(C)(C)O)C1 (single isomer, unassigned) [Example 222, 4-[1-(4-Amino-3-methyl-1H-pyrazolo[3,4-d]pyrimidin-1-yl)ethyl]-6-chloro-3-ethoxy-2-[1-(2-hydroxy-2-methylpropyl)azetidin-3-yl]benzonitrile]",–
< 0.01 µM,"CCOc1c(C(C)n2nc(C)c3c(N)ncnc32)cc(Cl)c(F)c1C1CNC(=O)C1 (single isomer, unassigned) [Example 346, 4-{3-[1-(4-amino-3-methyl-1H-pyrazolo[3,4-d]pyrimidin-1-yl)ethyl]-5-chloro-2-ethoxy-6-fluorophenyl}pyrrolidin-2-one]",–
